Structures can show the parent of a compound that is named as a salt.
Experiments:
SCN1A mRNA [1] = experiment: Upregulation of SCN1A mRNA in primary human skin fibroblasts carrying a Dravet-associated mutation (real time PCR); assay type: cell-based; details: compound 1 uM, 24-48 h, 18S-normalized vs vehicle (DMSO), average upregulation; for fold induction at 1 µM: Homo sapiens, Skin fibroblast, read-out: fold increase in SCN1A mRNA levels, SCN1A fibroblasts, Avg
Description: (§1) Transfer of a small molecule into a host cell or organism and determination of its effect upon RNA or protein up-regulation or down regulation can be assessed by several methods well known in the art. For example, SCN1A fibroblasts and/or keratinocytes or other cell types as desired are selected and grown for the specific assays herein. One day before the experiment cells are plated at the density of approximately 4×10^4/well into 24 well plates in Growth Media and incubated at 37° C. and 5% CO2 overnight. Next day, the media in the 24 well plates is changed to fresh Growth Media (1 ml/well) and the cells are dosed with small compounds. Compound stocks are prepared in DMSO at a concentration of 1 mM. At the time of the experiment 1 mM stock solutions are diluted to the concentration of 1 uM in Growth Media. One in 1000 dilution of DMSO is used for the control wells. After 24-48 h incubation at 37° C. and 5% CO2 the media is removed and RNA is extracted from the cells using SV Total RNA Isolation System from Promega (cat # Z3105) following the manufacturers' instructions. Six hundred nanograms of purified total RNA is added to the reverse transcription reaction performed using SuperScript VILO cDNA Synthesis Kit from Invitrogen (cat #11754-250) as described in the manufacturer's protocol. The cDNA from this reverse transcription reaction is used to monitor gene expression by real time PCR using ABI Taqman Gene Expression Mix (cat #4369510) and primers/probes designed by ABI (assays Hs00374696_ml, Hs00897350_ml or Hs00897341_ml for human SCN1A). The following PCR cycle is used: 50° C. for 2 min, 95° C. for 10 min, 40 cycles of (95° C. for 15 seconds, 60° C. for 1 min) using StepOne Plus Real Time PCR system (Applied Biosystems). The assay for 18S is manufactured by ABI (cat #4319413E). Fold change in gene expression after treatment with compounds is calculated based on the difference in 18S-normalized dCt values between compound- and vehicle-treated samples.
In Example 1 primary human skin fibroblasts carrying Dravet-associated SCN1A mutation were treated with small compounds at a final concentration of 1 uM.
Primary human skin fibroblasts carrying Dravet-associated SCN1A mutation introduced into culture by Dr. N. Kenyon (University of Miami) were grown in Growth Media consisting of a-MEM (Gibco, cat: 12561-056)+10% FBS (Mediatech, cat: 35-015 CV)+1% Antimycotic-Antibiotic (Gibco, cat: 15240-062) at 37° C. and 5% CO2. One day before the experiment cells were plated at the density of approximately 4×10^4/well into 24 well plates in Growth Media and incubated at 37° C. and 5% CO2 overnight. Next day, the media in the 24 well plates was changed to fresh Growth Media (I ml/well) and the cells were dosed with small compounds. All compounds were available from commercial sources. Compound stocks were prepared in DMSO at a concentration of 1 mM. At the time of the experiment 1 mM stock solutions were diluted to the concentration of 1 uM in Growth Media. One in 1000 dilution of DMSO was used for the control wells. After 24-48 h incubation at 37° C. and 5% CO2 the media was removed and RNA was extracted from the cells using SV Total RNA Isolation System from Promega (cat # Z3105) following the manufacturers' instructions. Six hundred nanograms of purified total RNA was added to the reverse transcription reaction performed using SuperScript VILO cDNA Synthesis Kit from Invitrogen (cat #11754-250) as described in the manufacturer's protocol. The cDNA from this reverse transcription reaction was used to monitor gene expression by real time PCR using ABI Taqman Gene Expression Mix (cat #4369510) and primers/probes designed by ABI (assays Hs00374696_ml, Hs00897350_ml or Hs00897341_ml for human SCN1A). Results obtained using all three assays were very similar (data not shown). […]

SCN1A mRNA [2] = experiment: Upregulation of SCN1A mRNA in adult primary human keratinocytes (real time PCR); assay type: cell-based; details: compound 1 uM, 24-48 h, 18S-normalized vs vehicle (DMSO), average upregulation; for fold induction at 1 µM: Homo sapiens, Keratinocyte, read-out: fold increase in SCN1A mRNA levels, Keratinocytes, Avg
Description: as §1
In Example 2 primary human keratinocytes were treated with small compounds at a final concentration of 1 uM.
Adult primary human keratinocytes from PromoCell (Heidelberg, Germany, cat # C-12003) or LifeLine Cell Technology (Frederick, Md., cat # FC-0025) were grown in Growth Media supplied by the manufacturers at 37° C. and 5% CO2. One day before the experiment cells were plated at the density of approximately 4×10^4/well into 24 well plates in Growth Media and incubated at 37° C. and 5% CO2 overnight. Next day, the media in the 24 well plates was changed to fresh Growth Media (1 ml/well) and the cells were dosed with small compounds. All compounds were available from commercial sources.
Compound stocks were prepared in DMSO at a concentration of 1 mM. At the time of the experiment 1 mM stock solutions were diluted to the concentration of 1 uM in Growth Media. One in 1000 dilution of DMSO was used for the control wells. After 24-48 h incubation at 37° C. and 5% CO2 the media was removed and RNA was extracted from the cells using SV Total RNA Isolation System from Promega (cat # Z3105) following the manufacturers' instructions. Six hundred nanograms of purified total RNA was added to the reverse transcription reaction performed using SuperScript VILO cDNA Synthesis Kit from Invitrogen (cat #11754-250) as described in the manufacturer's protocol. The cDNA from this reverse transcription reaction was used to monitor gene expression by real time PCR using ABI Taqman Gene Expression Mix (cat #4369510) and primers/probes designed by ABI (assays Hs00374696_ml, Hs00897350_ml or Hs00897341_ml for human SCN1A). Results obtained using all three assays were very similar (data not shown). The following PCR cycle was used: 50° C. for 2 min, 95° C. for 10 min, 40 cycles of (95° C. for 15 seconds, 60° C. for 1 min) using StepOne Plus Real Time PCR system (Applied Biosystems). The assay for 18S was manufactured by ABI (cat #4319413E). […]

Compound | fold induction at 1 µM (SCN1A mRNA [1]) | fold induction at 1 µM (SCN1A mRNA [2]) | fold increase in SCN1A mRNA levels, SCN1A fibroblasts, Avg (SCN1A mRNA [1]) [fold] | fold increase in SCN1A mRNA levels, Keratinocytes, Avg (SCN1A mRNA [2]) [fold]
Cc1nc2n(c(=O)c1CCN1CCC(c3noc4cc(F)ccc34)CC1)CCCC2 [Risperidone, 3-[2-[4-(6-flouro-1,2-benzisoxazol-3-yl)-1-piperidinyl]-ethyl]-6,7,8,9-tetrahydro-2-methyl-4H-pyrido[,2-a]pyrimidin-4-one] | 3.48 | 3.02 | – | –
Cc1cccc(Nc2ccncc2S(=O)(=O)NC(=O)NC(C)C)c1 [Torsemide] | 3.7 | – | – | –
COc1ccc(CN2CCN(C(c3ccc(F)cc3)c3ccc(F)cc3)CC2)c(OC)c1OC [Lomerizine, 1-[bis(4-fluorophenyl)methyl]-4-[2,3,4-trimethoxyphenylmethyl]Dihydrochloride] | 2.39 | 3.47 | – | –
CN1CC(=O)N2[C@H](c3ccc4c(c3)OCO4)c3[nH]c4ccccc4c3C[C@@H]2C1=O [Tadalafil, (6R-trans)-6-(1,3-benzodioxol-S-yl)-2,3,6,7,12,12a-hexahydro-2-methyl-pyrazino[1′,2′:1,6]pyrido[3,4-b]indole-1,4-dione] | 2.73 | 2.79 | – | –
C[C@H]1CCC[C@H](O)CCCCCc2cc(O)cc(O)c2C(=O)O1 [Zeranol, (3S,7R)-7,14,16-trihydroxy-3-methyl-3,4,5,6,7,8,9,10,11,12-decahydro-1H-2-benzoxacyclotetradecin-1-one] | 2.6 | 4.51 | – | –
CCOC(=O)C1=C(C)NC(C)=C(C(=O)OC)C1c1cccc([N+](=O)[O-])c1 (racemic) [Nitrendipine, (RS)-ethyl methyl 2,6-dimethyl-4-(3-nitrophenyl)-1,4-dihydropyridine-3,5-dicarboxylate] | 2.13 | – | – | –
CCc1nn(CCCN2CCN(c3cccc(Cl)c3)CC2)c(=O)n1CCOc1ccccc1 [Nefazadone, 2-[3-[4-(3-chlorophenyl)-1-piperazinyl]propyl]-5-ethyl-2,4-dihydro-4-(2-phenoxyethyl)-3H-1,2,4-triazol-3-one monohydrochloride] | 2.39 | 4.53 | – | –
CC(C)c1ccc2oc3nc(N)c(C(=O)O)cc3c(=O)c2c1 [Amlexanox, 2-amino-7-isopropyl-5-oxo-5H-chromeno[2,3-b]pyridine-3-carboxylic acid] | 2.01 | 5.41 | – | –
C[C@]12Cc3c[nH]nc3C[C@@H]1CC[C@@H]1[C@@H]2CC[C@@]2(C)[C@H]1CC[C@]2(C)O [Stanozolol, 17β-Hydroxy-17-methyl-5α-androstano[3,2-c]-pyrazole] | 1.75 | 1.76 | – | –
CCOc1cc(N)c(Cl)cc1C(=O)NCC1CN(Cc2ccc(F)cc2)CCO1 (stereo not shown) [Mosapride] | 1.9 | 1.47 | – | –
COC(=O)C1=C(C)NC(C)=C(C(=O)OC2CCCN(Cc3ccccc3)C2)C1c1cccc([N+](=O)[O-])c1 [Benidipine, 5-Omethyl-3O-[(3R)-1-(phenylmethyl)-piperidin-3-yl]2,6-dimethyl-4-(3-nitrophenyl)-1,4-dihydropyridine-3,5-dicarboxylate] | 3.01 | 1.69 | – | –
CC(=O)N1CCN(c2ccc(OCC3COC(Cn4ccnc4)(c4ccc(Cl)cc4Cl)O3)cc2)CC1 [Ketoconazole, 1-[4-(4-{[(2R,4S)-2-(2,4-Dichlorophenyl)-2-(1H-imidazol-1-ylmethyl)-1,3-dioxolan-4-yl]methoxy}phenyl)piperazin-1-ylethan-1-one] | 2.95 | 2.73 | – | –
CCN(CC)C(=O)C1(c2ccccc2)CC1CN [Milnacipran, 1R(S),2S(R)[-2-(aminomethyl)-N,N-diethyl-1-phenylcyclopropanecarboxamide hydrochloride] | 4.37 | 2.72 | – | –
CC(N=C(NC#N)Nc1ccncc1)C(C)(C)C (stereo not shown) [Pinacidil, N-cyano-N′pyridin-4-yl-N″-(1,2,2-trimethylpropyl)guanidine] | 3.48 | – | – | –
CS(=O)(=O)Nc1ccc(Cc2noc(-c3ccc4[nH]cc(CCN)c4c3)n2)cc1 [L-694,247, Methanesulfonamide,N-[4-[[5-[3-(2-aminoethyl)-1H-indol-5-yl]-1,2,4-oxadiazol-3-yl]methyl]phenyl]] | – | – | 2.20 | 1.68
COc1ccc(-c2oc3c(CC=C(C)C)c(O[C@@H]4O[C@H](CO)[C@@H](O)[C@H](O)[C@H]4O)cc(O)c3c(=O)c2O[C@@H]2O[C@@H](C)[C@H](O)[C@@H](O)[C@H]2O)cc1 [Icariin, 5-hydroxy-2-(4-methoxyphenyl)-8-(3-methylbut-2-enyl)-7-[(2S,3R,4S,5S,6R)-3,4,5-trihydroxy-6-(hydroxymethyl)oxan-2-yl]oxy-3-[(2S,3R,4R,5R,6S)-3,4,5-trihydroxy-6-methyloxan-2-yl]oxychromen-4-one] | 2.38 | 2.29 | – | –
COc1ccc2[nH]c([S+]([O-])Cc3ncc(C)c(OC)c3C)nc2c1 (stereo not shown) [Omeprazole, 6-methoxy-2-((4-methoxy-3,5-dimethylpyridin-2-yl)methylsulfinyl)-1H-benzo[d]imidazole Mg] | 2.22 | 2.46 | – | –
CN[C@H]1CC[C@@H](c2ccc(Cl)c(Cl)c2)c2ccccc21 [Sertraline, (1S,4S)-4-(3,4-dichlorophenyl)-N-methyl-1,2,3,4-tetrahydronaphthalen-1-amine] | 1.79 | 5.18 | – | –
CN1C(=O)CN=C(c2ccccc2)c2cc([N+](=O)[O-])ccc21 [Nimetazepam, 2-methyl-9-nitro-6-phenyl-2,5-diazabicyclo[5.4.0]undeca-5,8,10,12-tetraen-3-one] | 2.03 | 2.47 | – | –
O=c1c2ccccc2[se]n1-c1ccccc1 [Ebselen, 2-Phenyl-1,2-benzoselenazol-3-one] | 2.81 | 2.67 | – | –

From patent US10583128B2, “Treatment of diseases related to alpha subunits of sodium channels, voltage-gated (SCNxA) with small molecules” (CuRNA, Inc., priority 2011, dated 2020)
